The record followed here is patent publication US7718808B2, “Thiazole derivatives” (Kyowa Hakko Kirin Co., Ltd., priority 2003, dated 2010).

Where only a bound is given, the exact number is not on record here.

What is called melting point is the temperature, or range, at which the solid turns liquid. For the compound `COC1CCN(CC(=O)Nc2nc(-c3ccco3)c(C(=O)c3ccccn3)s2)CC1.Cl`, the melting point was 220 to 232 °C (dec.).

Consider `CCN(CC)C(=O)C1CCCN(CC(=O)Nc2nc(-c3ccco3)c(C(=O)c3ccccn3)s2)C1.Cl` (stereo not drawn), for which the melting point lay in the range of 180 to 185 °C. Then `CN1CCN(CC(=O)Nc2nc(-c3ccco3)c(C(=O)c3ccccn3)s2)CC1=O.Cl`, with 170 to 188 °C.

Regarding `O=C(Nc1nc(-c2ccco2)c(-c2ccncc2)s1)c1ccc(F)cc1` [Compound 102, 4-Fluoro-N-[4-(2-furyl)-5-(4-pyridyl)thiazol-2-yl]benzamide], the melting point was 270 to 300 °C (dec.).

In turn, `COc1ccc(C(=O)Nc2nc(-c3ccco3)c(-c3ccncc3)s2)cc1` [Compound 103, N-[4-(2-Furyl)-5-(4-pyridyl)thiazol-2-yl]-4-methoxybenzamide] registered a melting point of 235 to 245 °C. In turn, `CC(C)(C)C(=O)Nc1nc(-c2ccco2)c(-c2ccncc2)s1` [Compound 104, N-[4-(2-Furyl)-5-(4-pyridyl)thiazol-2-yl]-2,2-dimethylpropanamide] came in with a melting point of 240 to 241 °C. Regarding `COc1cc(C(=O)Nc2nc(-c3ccco3)c(-c3ccncc3)s2)ccn1` [Compound 105, N-[4-(2-Furyl)-5-(4-pyridyl)thiazol-2-yl]-2-methoxypyridine-4-carboxamide], the melting point is 285 to 288 °C.

As to `O=C(Nc1nc(-c2ccco2)c(-c2ccncc2)s1)c1ccnc(Cn2ccnc2)c1` [Compound 108, N-[4-(2-Furyl)-5-(4-pyridyl)thiazol-2-yl]-2-(imidazol-1-ylmethyl)pyridine-4-carboxamide], the melting point lay within 239 to 250 °C. `CN(C)CCN(C)Cc1cc(C(=O)Nc2nc(-c3ccco3)c(-c3ccncc3)s2)ccn1` [Compound 109, 2-{N-[2-(Dimethylamino)ethyl]-N-methylaminomethyl}-N-[4-(2-furyl)-5-(4-pyridyl)thiazol-2-yl]pyridine-4-carboxamide] came in with a melting point of 203 to 205 °C.

`COCCN(C)Cc1cc(C(=O)Nc2nc(-c3ccco3)c(-c3ccncc3)s2)ccn1` [Compound 110, N-[4-(2-Furyl)-5-(4-pyridyl)thiazol-2-yl]-2-[N-(2-methoxyethyl)-N-methylaminomethyl]pyridine-4-carboxamide] came in with a melting point of 195 to 197 °C. Then `O=C(Nc1nc(-c2ccco2)c(-c2ccncc2)s1)c1ccnc(CN2CCC(O)CC2)c1` [Compound 111, N-[4-(2-Furyl)-5-(4-pyridyl)thiazol-2-yl]-2-(4-hydroxypiperidinomethyl)pyridine-4-carboxamide], with 203 to 208 °C; and `O=C(Nc1nc(-c2ccco2)c(-c2ccncc2)s1)c1cc[nH]c(=O)c1` [Compound 112, N-[4-(2-Furyl)-5-(4-pyridyl)thiazol-2-yl]-2-oxo-1,2-dihydropyridine-4-carboxamide], with 277 to 281 °C; and `O=C(Nc1nc(-c2ccco2)c(-c2ccncc2)s1)c1ccn(Cc2ccccc2)c(=O)c1` [Compound 113, 1-Benzyl-N-[4-(2-furyl)-5-(4-pyridyl)thiazol-2-yl]-2-oxo-1,2-dihydropyridine-4-carboxamide], with 244 to 248 °C. Take `COc1ccc(-c2sc(NC(=O)c3ccccc3)nc2-c2ccco2)cc1` [Compound 119, N-[4-(2-Furyl)-5-(4-methoxyphenyl)thiazol-2-yl]benzamide]: the melting point was in the range of 90 to 98 °C. `Cn1ccc(-c2sc(NC(=O)c3ccncc3)nc2-c2ccco2)cc1=O` [Compound 123, N-[4-(2-Furyl)-5-(1-methyl-2-oxo-1,2-dihydropyridine-4-yl)thiazol-2-yl]pyridine-4-carboxamide] came in with a melting point of 280 to 282 °C. Then `CCn1ccc(-c2sc(NC(=O)c3ccncc3)nc2-c2ccco2)cc1=O` [Compound 124, N-[5-(1-Ethyl-2-oxo-1,2-dihydropyridin-4-yl)-4-(2-furyl)thiazol-2-yl]pyridine-4-carboxamide], with 245 to 248 °C; and `O=C(Nc1nc(-c2ccco2)c(-c2ccn(Cc3ccccc3)c(=O)c2)s1)c1ccncc1` [Compound 125, N-[5-(1-Benzyl-2-oxo-1,2-dihydropyridin-4-yl)-4-(2-furyl)thiazol-2-yl]pyridine-4-carboxamide], with 137 to 140 °C. For the compound `Cn1cc(-c2sc(NC(=O)c3ccncc3)nc2-c2ccco2)ccc1=O` [Compound 126, N-[4-(2-Furyl)-5-(1-methyl-2-oxo-1,2-dihydropyridin-5-yl)thiazol-2-yl]pyridine-4-carboxamide], the melting point is 294 to 295 °C. Take `CCn1cc(-c2sc(NC(=O)c3ccncc3)nc2-c2ccco2)ccc1=O` [Compound 127, N-[5-(1-Ethyl-2-oxo-1,2-dihydropyridin-5-yl)-4-(2-furyl)thiazol-2-yl]pyridine-4-carboxamide]: the melting point fell in the range of 285 to 289 °C. For the compound `O=C(Nc1nc(-c2ccco2)c(-c2ccc(=O)n(Cc3ccccc3)c2)s1)c1ccncc1` [Compound 128, N-[5-(1-Benzyl-2-oxo-1,2-dihydropyridin-5-yl)-4-(2-furyl)thiazol-2-yl]pyridine-4-carboxamide], the melting point lay in the range of 215 to 218 °C. In the case of `CCn1c(-c2sc(NC(=O)c3ccncc3)nc2-c2ccco2)cccc1=O` [Compound 129, N-[5-(1-Ethyl-6-oxo-1,6-dihydropyridin-2-yl)-4-(2-furyl)thiazol-2-yl]pyridine-4-carboxamide], the melting point is over 300 °C. Compound `CCn1nc(-c2sc(NC(=O)c3ccncc3)nc2-c2ccco2)ccc1=O` [Compound 130, N-[5-(1-Ethyl-6-oxo-1,6-dihydropyridazin-3-yl)-4-(2-furyl)thiazol-2-yl]pyridine-4-carboxamide] returned a melting point of 235 to 239 °C. As for `CC(C)(O)C(=O)Nc1nc(-c2ccco2)c(C(=O)c2ccccc2)s1` [Compound 137, N-[5-Benzoyl-4-(2-furyl)thiazol-2-yl]-2-hydroxy-2-methylpropanamide], the melting point fell in the range of 153 to 154 °C. Regarding `O=C(c1ccccc1)c1sc(NC(=O)C2(O)CC2)nc1-c1ccco1` [Compound 138, N-[5-Benzoyl-4-(2-furyl)thiazol-2-yl]-1-hydroxycyclopropanecarboxamide], the melting point fell in the range of 202 to 205 °C. `CN(C)Cc1cc(C(=O)Nc2nc(-c3ccco3)c(C(=O)c3ccccc3)s2)ccn1` [Compound 141, N-[5-Benzoyl-4-(2-furyl)thiazol-2-yl]-2-(dimethylaminomethyl)pyridine-4-carboxamide] showed a melting point of 205 to 209 °C. The result for `O=C(Nc1nc(-c2ccco2)c(C(=O)c2ccccc2)s1)c1ccnc(CN2CCOCC2)c1` [Compound 144, N-[5-Benzoyl-4-(2-furyl)thiazol-2-yl]-2-(morpholinomethyl)pyridine-4-carboxamide] reads 212 to 213 °C; that for `COCCN(C)c1cc(C(=O)Nc2nc(-c3ccco3)c(C(=O)c3ccccc3)s2)ccn1` [Compound 145, N-[5-Benzoyl-4-(2-furyl)thiazol-2-yl]-2-[N-(2-methoxyethyl)-N-methylamino]pyridine-4-carboxamide], 145 to 147 °C; that for `O=C(Nc1nc(-c2ccco2)c(C(=O)c2ccccc2)s1)c1ccnc(N2CCCCC2)c1` [Compound 146, N-[5-Benzoyl-4-(2-furyl)thiazol-2-yl]-2-piperidinopyridine-4-carboxamide], 195 to 198 °C. The result for `Cn1cc(C(=O)Nc2nc(-c3ccco3)c(C(=O)c3ccccc3)s2)ccc1=O` [Compound 150, N-[5-Benzoyl-4-(2-furyl)thiazol-2-yl]-1-methyl-2-oxo-1,2-dihydropyridine-5-carboxamide] reads 220 to 225 °C. In turn, `O=C(Nc1nc(-c2ccco2)c(C(=O)c2ccccc2)s1)c1ccc(=O)n(Cc2ccncc2)c1` [Compound 152, N-[5-Benzoyl-4-(2-furyl)thiazol-2-yl]-2-oxo-1-(pyridin-4-ylmethyl)-1,2-dihydropyridine-5-carboxamide] had a melting point of 270 to 275 °C. `O=C(Nc1nc(-c2ccco2)c(C(=O)c2ccccc2)s1)c1ccnnc1` [Compound 153, N-[5-Benzoyl-4-(2-furyl)thiazol-2-yl]pyridazine-4-carboxamide] yielded a melting point of 225 to 248 °C. With `CC(=O)Nc1nc(-c2ccco2)c(C(=O)c2ccccn2)s1` [Compound 188, N-[4-(2-Furyl)-5-(pyridin-2-ylcarbonyl)thiazol-2-yl]acetamide], the melting point fell in the range of 216 to 217 °C. Then `CCCC(=O)Nc1nc(-c2ccco2)c(C(=O)c2ccccn2)s1` [Compound 189, N-[4-(2-Furyl)-5-(pyridin-2-ylcarbonyl)thiazol-2-yl]butanamide], with 148 to 149 °C; and `CC(C)(C)C(=O)Nc1nc(-c2ccco2)c(C(=O)c2ccccn2)s1` [Compound 190, N-[4-(2-Furyl)-5-(pyridin-2-ylcarbonyl)thiazol-2-yl]-2,2-dimethylpropanamide], with 186 to 187 °C.

In the case of `CC1(C(=O)Nc2nc(-c3ccco3)c(C(=O)c3ccccn3)s2)CC1` [Compound 192, N-[4-(2-Furyl)-5-(pyridin-2-ylcarbonyl)thiazol-2-yl]-1-methylcyclopropanecarboxamide], the melting point was 195 to 196 °C. Regarding `O=C(c1ccccn1)c1sc(NC(=O)C2CCC2)nc1-c1ccco1` [Compound 193, N-[4-(2-Furyl)-5-(pyridin-2-ylcarbonyl)thiazol-2-yl]cyclobutanecarboxamide], the melting point was in the range of 165 to 170 °C.

`O=C(c1ccccn1)c1sc(NC(=O)C2CCOCC2)nc1-c1ccco1` [Compound 194, N-[4-(2-Furyl)-5-(pyridin-2-ylcarbonyl)thiazol-2-yl]tetrahydropyran-4-carboxamide] had a melting point of 234 to 235 °C.

Compound `O=C(c1ccccn1)c1sc(NC(=O)C2CCN(Cc3cccnc3)CC2)nc1-c1ccco1` [Compound 197, N-[4-(2-Furyl)-5-(pyridin-2-ylcarbonyl)thiazol-2-yl]-1-(pyridin-3-ylmethyl)piperidine-4-carboxamide] displayed a melting point of 208 to 209 °C. For `O=C(c1ccccn1)c1sc(NC(=O)C2CCN(Cc3ccncc3)CC2)nc1-c1ccco1` [Compound 198, N-[4-(2-Furyl)-5-(pyridin-2-ylcarbonyl)thiazol-2-yl]-1-(pyridin-4-ylmethyl)piperidine-4-carboxamide], the melting point was 240 to 241 °C.
